For eight compounds, MIC and IC50 results are on record in ChEMBL document CHEMBL4033728, “Synthesis and structure-activity relationship study of novel quinazolinone-based inhibitors of MurA” (Bioorg Med Chem Lett, 2017).

The test system of assay [1] is Staphylococcus aureus. Nature of the assay: Antibacterial activity against Staphylococcus aureus. It is filed as functional.
Assay [2] deals with Escherichia coli. Description: Antibacterial activity against Escherichia coli. It is filed as functional.
Assay [3] is described as follows: Inhibition of Escherichia coli MurA using UDP-GlcNAc and PEP as substrate incubated for 15 mins by Malachite green method.
In assay [4] the test system is Escherichia coli. Description: Antibacterial activity against Escherichia coli ATCC 25922 incubated for 18 to 24 hrs by broth microdilution method. It is filed as functional. In general terms: In broth dilution the organism is exposed to a series of concentrations in liquid medium.
In assay [5] the test system is Staphylococcus aureus. Nature of the assay: Antibacterial activity against Staphylococcus aureus ATCC 29213 incubated for 18 to 24 hrs by broth microdilution method. The format is functional.
Assay [6] is described as follows: Inhibition of Escherichia coli MurA.

Values after ≈ are worked out from the molar mass of the structure shown. Bounds are passed on as bounds.

As a reminder, the MIC is the least concentration at which growth counts as inhibited. Low readings indicate inhibition by little substance, high ones a need for much substance. A word on the IC50: it is the concentration at which inhibition is half-maximal.

For `Cn1cc[n+](C(Cn2cnc3ccc(Cl)cc3c2=O)c2cc3cc(Br)ccc3o2)c1.[Cl-]` (stereo not drawn), the MIC was 16 µg/mL in assay [1] and 128 µg/mL in assay [2].

`O=c1[nH]c(-c2ccc(-c3ccccc3)s2)nc2ccccc12` yielded an IC50 in assay [3] of 17 µM. The MIC in assay [4] and in assay [5] was more than 128 µg/mL throughout.

In assay [6], `C[C@@H]1O[C@@H]1P(=O)(O)O` [FOSFOMYCIN] had an IC50 of 8.8 µM. Besides, the MIC in assay [1] and in assay [2] was 16 µg/mL (≈ 116 µM) each time.

For the compound `O=c1[nH]c(-c2ccc(Br)o2)nc2ccccc12`, in assay [3], the IC50 was found to be 56 µM. Further, the MIC in assay [4] and in assay [5] was more than 128 µg/mL throughout.

In assay [3], `O=c1[nH]c(-c2ccc(OCc3ccccc3)cc2)nc2ccccc12` displayed an IC50 of 36 µM. Moreover, the MIC in assay [4] and in assay [5] was more than 128 µg/mL in each case.

`CCCCCCCOc1ccc(-c2nc3ccccc3c(=O)[nH]2)cc1` came in with an IC50 in assay [3] of 84 µM. Also, the MIC in assay [4] and in assay [5] was more than 128 µg/mL throughout.

The compound `O=c1[nH]c(-c2ccc(OCc3ccccc3)cc2)nc2ccsc12` yielded an IC50 in assay [3] of 22 to 30 µM. Further, the MIC in assay [4] and in assay [5] was not below 128 µg/mL in each case.

For `O=c1[nH]c(-c2ccco2)nc2ccsc12`, the midpoint of inhibition in assay [3], the IC50, lay at 94 µM. Also, the MIC in assay [4] and in assay [5] was more than 128 µg/mL throughout.
